Test system: B.breve 2258
Assay: Growth inhibition of B.breve 2258 by trilinolein compared with free linoleic acid
Format: cell-based, Bifidobacterium breve
Conditions: compared with similar concentrations of free linoleic acid
From the text: B.breve NCFB 2258 was further investigated for ability to utilise triglyceride bound linoleic acid as substrate for CLA production. B.breve NCFB 2258 was inoculated from a fully grown culture into MRS broth with added cysteine (0.05%) and trilinolein (C18:2, cis-9, cis-12, 99% pure, Sigma Chemical Co.), soybean oil and sunflower oil (purchased from a local grocery store) containing known linoleic acid concentrations. The triglyceride mixtures were sterile-filtered through 0.45 μm […] filters and added as 5 mg/ml aqueous solutions in 2.5% (v/v) Tween 80. Substantial vortexing was required to dissolve the fat particles. The volume of the triglyceride stock solutions added was calculated to give a final concentration of 0.2 mg linoleic acid/ml of broth. B.breve 2258 was inoculated into MRS broth in the presence of the triglyceride substrates under anaerobic conditions at 37° C. and incubated for 48 h.

CCCCC/C=C\C/C=C\CCCCCCCC(=O)OCC(COC(=O)CCCCCCC/C=C\C/C=C\CCCCC)OC(=O)CCCCCCC/C=C\C/C=C\CCCCC [trilinolein]
growth inhibition of B.breve 2258: did not inhibit the growth of B.breve 2258 to the same extent as similar concentrations of free linoleic acid

Reference: patent publication US7223543B2, “Conjugated linoleic acid isomerase and a process for the production of conjugated linoleic acid” (Teagasc Dairy Products Research Centre, priority 2001, dated 2007)
